Experimental data reported in US12583858B2 (Genentech, Inc., priority 2015, dated 2026).

target: T1, TDO2 (Homo sapiens, UniProt P48775); assay: TDO2 cell assay (NFK GreenScreen, SW48 cells); type: cell-based; conditions: SW48 cells (high TDO expressing), 200 uM tryptophan, 24 hours; Table 3; read-out: TDO2 Cell Fluor EC50
T1 construct: decreased levels of NFK in SW48 cells (high TDO expressing cells)
T1 sequence (P48775 whole entry): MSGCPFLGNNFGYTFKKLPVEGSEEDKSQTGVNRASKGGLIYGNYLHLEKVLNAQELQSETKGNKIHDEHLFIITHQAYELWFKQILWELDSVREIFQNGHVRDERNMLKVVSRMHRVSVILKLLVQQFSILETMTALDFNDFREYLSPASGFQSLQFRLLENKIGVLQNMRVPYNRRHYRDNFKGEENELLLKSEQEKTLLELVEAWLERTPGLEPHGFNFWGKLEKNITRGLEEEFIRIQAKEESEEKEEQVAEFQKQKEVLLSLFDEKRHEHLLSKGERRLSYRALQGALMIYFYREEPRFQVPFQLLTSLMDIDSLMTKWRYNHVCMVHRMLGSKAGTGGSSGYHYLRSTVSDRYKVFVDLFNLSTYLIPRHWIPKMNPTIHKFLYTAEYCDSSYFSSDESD

| SMILES | EC50 [nM] |
| --- | --- |
| N#CCN1CCC(O)C(C2c3ccccc3-c3cncn32)C1 (single isomer, unassigned) [Example 14b] | > 25000 |
| N#CCN1CCC(O)C(C2c3ccccc3-c3cncn32)C1 (single isomer, unassigned) [Example 14c] | 20000 |
| N#CCN1CCC(O)C(C2c3ccccc3-c3cncn32)C1 (single isomer, unassigned) [Example 14d] | > 25000 |
| CCS(=O)(=O)N1CCC(O)C(C2c3ccccc3-c3cncn32)C1 (single isomer, unassigned) [Example 15a] | > 25000 |
| CCS(=O)(=O)N1CCC(O)C(C2c3ccccc3-c3cncn32)C1 (single isomer, unassigned) [Example 15b] | > 25000 |
| CCS(=O)(=O)N1CCC(O)C(C2c3ccccc3-c3cncn32)C1 (single isomer, unassigned) [Example 15c] | 7500 |
| CCS(=O)(=O)N1CCC(O)C(C2c3ccccc3-c3cncn32)C1 (single isomer, unassigned) [Example 15d] | > 25000 |
| O[C@@H]1CCC(F)(F)C[C@@H]1[C@H]1c2ccccc2-c2cncn21 (single isomer, unassigned) [Example 18b] | 62 |
| OC1CCC(F)(F)CC1C1c2ccccc2-c2cncn21 (single isomer, unassigned) [Example 18c, 4,4-difluoro-2-(5H-imidazo[5,1-a]isoindol-5-yl)cyclohexan-1-ol] | 320 |
| OC1CCC(F)(F)CC1C1c2ccccc2-c2cncn21 (single isomer, unassigned) [Example 18d, 4,4-difluoro-2-(5H-imidazo[5,1-a]isoindol-5-yl)cyclohexan-1-ol] | 8000 |
| O[C@H]1CCC(F)(F)C[C@H]1[C@@H]1c2ccccc2-c2cncn21 (single isomer, unassigned) [Example 18f] | 15000 |
| OC1CCC(F)(F)CC1C1c2ccccc2-c2cncn21 (single isomer, unassigned) [Example 18g, 4,4-difluoro-2-(5H-imidazo[5,1-a]isoindol-5-yl)cyclohexan-1-ol] | 110 |
| OC1CCC(F)(F)CC1C1c2ccccc2-c2cncn21 (single isomer, unassigned) [Example 18h, 4,4-difluoro-2-(5H-imidazo[5,1-a]isoindol-5-yl)cyclohexan-1-ol] | 13000 |
| OC1c2ccccc2CC1C1c2ccccc2-c2cncn21 (single isomer, unassigned) [Example 19a] | 7400 |
| OC1c2ccccc2CC1C1c2ccccc2-c2cncn21 (single isomer, unassigned) [Example 19b] | 510 |
| OC1c2ccccc2CC1C1c2ccccc2-c2cncn21 (single isomer, unassigned) [Example 19c] | 180 |
| OC1c2ccccc2CC1C1c2ccccc2-c2cncn21 (single isomer, unassigned) [Example 19d] | 200 |
| OC1c2ccccc2CC1C1c2ccccc2-c2cncn21 (single isomer, unassigned) [Example 19e] | 2000 |
| OC1c2ccccc2CC1C1c2ccccc2-c2cncn21 (single isomer, unassigned) [Example 19f] | 4400 |
| OC1CCCC1C1c2ccc(F)cc2-c2cncn21 (single isomer, unassigned) [Example 20a] | > 25000 |

| SMILES | EC50 [nM] |
| --- | --- |
| OC1CCCC1C1c2ccc(F)cc2-c2cncn21 (single isomer, unassigned) [Example 20b] | 430 |
| OC1CCCC1C1c2ccc(F)cc2-c2cncn21 (single isomer, unassigned) [Example 20c] | 3600 |
| OC1CCCC1C1c2ccc(F)cc2-c2cncn21 (single isomer, unassigned) [Example 20d] | 99 |
| CC1(C)CC(O)C1C1c2ccccc2-c2cncn21 (single isomer, unassigned) [Example 22d] | 6900 |
| CC1(C)C[C@@H](O)[C@H]1[C@H]1c2ccccc2-c2cncn21 (single isomer, unassigned) [Example 22f] | 1100 |
| CC1(C)C[C@@H](O)[C@H]1[C@H]1c2ccccc2-c2cncn21 (single isomer, unassigned) [Example 22g] | 780 |
| CC1(C)CC(O)C1C1c2ccccc2-c2cncn21 (single isomer, unassigned) [Example 22h] | 400 |
| CC1(C)CCC(C2c3ccccc3-c3cncn32)C1O (single isomer, unassigned) [Example 23a] | > 25000 |
| CC1(C)CCC(C2c3ccccc3-c3cncn32)C1O (single isomer, unassigned) [Example 23b] | 85 |
| CC1(C)CCC(C2c3ccccc3-c3cncn32)C1O (single isomer, unassigned) [Example 23c] | 81 |
| CC1(C)CCC(C2c3ccccc3-c3cncn32)C1O (single isomer, unassigned) [Example 23d] | 110 |
| CC1(C)CCC(C2c3ccccc3-c3cncn32)C1O (single isomer, unassigned) [Example 23e] | 17000 |
| CC1(C)CCC(C2c3ccccc3-c3cncn32)C1O (single isomer, unassigned) [Example 23f] | 2700 |
| CC1(C)CCCC(C2c3ccccc3-c3cncn32)C1O (single isomer, unassigned) [Example 24a] | 57 |
| CC1(C)CCCC(C2c3ccccc3-c3cncn32)C1O (single isomer, unassigned) [Example 24b] | 8700 |
| CC1(C)CCCC(C2c3ccccc3-c3cncn32)C1O (single isomer, unassigned) [Example 24c] | 5500 |
| CC1(C)CCCC(C2c3ccccc3-c3cncn32)C1O (single isomer, unassigned) [Example 24d] | 1100 |
| CC1(C)CCCC(C2c3ccccc3-c3cncn32)C1O (single isomer, unassigned) [Example 24e] | 130 |
| CC1(C)CCCC(C2c3ccccc3-c3cncn32)C1O (single isomer, unassigned) [Example 24g] | 340 |
| CC1(C)CCCC(C2c3ccccc3-c3cncn32)C1O (single isomer, unassigned) [Example 24h] | 12000 |

The next lines start with the values.

| EC50 [nM] | SMILES |
| --- | --- |
| 510 | OC1CCCCC1C1c2ccc(F)cc2-c2cncn21 (single isomer, unassigned) [Example 25a] |
| > 25000 | OC1CCCCC1C1c2ccc(F)cc2-c2cncn21 (single isomer, unassigned) [Example 25b] |
| 20000 | OC1CCCCC1C1c2ccc(F)cc2-c2cncn21 (single isomer, unassigned) [Example 25c] |
| 48 | OC1CCCCC1C1c2ccc(F)cc2-c2cncn21 (single isomer, unassigned) [Example 25d] |
| > 25000 | OC1COCC1C1c2ccccc2-c2cncn21 (single isomer, unassigned) [Example 26a] |
| 230 | OC1COCC1C1c2ccccc2-c2cncn21 (single isomer, unassigned) [Example 26b] |
| 710 | OC1COCC1C1c2ccccc2-c2cncn21 (single isomer, unassigned) [Example 26c] |
| > 25000 | OC1COCC1C1c2ccccc2-c2cncn21 (single isomer, unassigned) [Example 26d] |
| > 25000 | N#CCN1CC[C@@H]([C@H]2c3ccccc3-c3cncn32)[C@H](O)C1 (single isomer, unassigned) [Example 27a] |
| 18000 | N#CCN1CC[C@@H]([C@H]2c3ccccc3-c3cncn32)[C@H](O)C1 (single isomer, unassigned) [Example 27b] |
| 3000 | N#CCN1CC[C@@H]([C@@H]2c3ccccc3-c3cncn32)[C@H](O)C1 (single isomer, unassigned) [Example 27d] |
| > 25000 | NS(=O)(=O)N1CC(O)C(C2c3ccccc3-c3cncn32)C1 (single isomer, unassigned) [Example 28a] |
| 4400 | NS(=O)(=O)N1CC(O)C(C2c3ccccc3-c3cncn32)C1 (single isomer, unassigned) [Example 28b] |
| > 25000 | NS(=O)(=O)N1CC(O)C(C2c3ccccc3-c3cncn32)C1 (single isomer, unassigned) [Example 28c] |
| > 25000 | NS(=O)(=O)N1CC(O)C(C2c3ccccc3-c3cncn32)C1 (single isomer, unassigned) [Example 28d] |
| > 25000 | O=c1cccc2n1CCC(C1c3ccccc3-c3cncn31)C2O (single isomer, unassigned) [Example 29a, 1-hydroxy-2-(5H-imidazo[5,1-a]isoindol-5-yl)-3,4-dihydro-1H-quinolizin-6(2H)-one] |
| 670 | O=c1cccc2n1CCC(C1c3ccccc3-c3cncn31)C2O (single isomer, unassigned) [Example 29b, 1-hydroxy-2-(5H-imidazo[5,1-a]isoindol-5-yl)-3,4-dihydro-1H-quinolizin-6(2H)-one] |
| 24000 | O=c1cccc2n1CCC(C1c3ccccc3-c3cncn31)C2O (single isomer, unassigned) [Example 29c, 1-hydroxy-2-(5H-imidazo[5,1-a]isoindol-5-yl)-3,4-dihydro-1H-quinolizin-6(2H)-one] |
| 5700 | O=c1cccc2n1CCC(C1c3ccccc3-c3cncn31)C2O (single isomer, unassigned) [Example 29d, 1-hydroxy-2-(5H-imidazo[5,1-a]isoindol-5-yl)-3,4-dihydro-1H-quinolizin-6(2H)-one] |
| 440 | O=c1cccc2n1CCC(C1c3ccccc3-c3cncn31)C2O (single isomer, unassigned) [Example 29e, 1-hydroxy-2-(5H-imidazo[5,1-a]isoindol-5-yl)-3,4-dihydro-1H-quinolizin-6(2H)-one] |
| > 25000 | O=c1cccc2n1CCC(C1c3ccccc3-c3cncn31)C2O (single isomer, unassigned) [Example 29f, 1-hydroxy-2-(5H-imidazo[5,1-a]isoindol-5-yl)-3,4-dihydro-1H-quinolizin-6(2H)-one] |
| 260 | OC1COCC1C1c2ccc(F)cc2-c2cncn21 (single isomer, unassigned) [Example 30a] |
| 15000 | OC1COCC1C1c2ccc(F)cc2-c2cncn21 (single isomer, unassigned) [Example 30b] |
| 2100 | OC1COCC1C1c2ccc(F)cc2-c2cncn21 (single isomer, unassigned) [Example 30c] |
